Values joined by “and” are separate entries in the source; they are usually repeats but may differ in a detail not shown here. Equal entries are not always repeated. Structures can show the parent of a compound that is named as a salt. Where two headings read alike, the source gives them in different places.
Assay: Ocular tissue concentrations (aqueous humor, vitreous humor, iris, retina, choroid, cornea) after topical ocular, subcutaneous and intravitreal administration
Format: in vivo, New Zealand White rabbits
Conditions: for Average Peak Concentration, Vitreous Humor: solution
Description: To measure the concentration of Compound 1 in plasma and ocular tissues following topical ocular, subcutaneous, and intravitreal administration, New Zealand White rabbits were administered Compound 1, and plasma and ocular samples were collected at pre-determined time points. Compound 1 formulations were prepared fresh on each day of dosing.
Ocular tissue samples from both eyes of each animal were collected and weights were recorded. Plasma and ocular tissue sample concentrations of Compound 1 were determined by LC-MS/MS.
New Zealand White rabbits weighing 2.5 to 3.5 kg were used on this study. Rabbits were housed one per cage. Animals were not fasted and only healthy animals with no ocular illness were used. Two rabbits per group were sacrificed at each of four ocular tissue sampling time points for a total of eight rabbits per group.
Animals were anesthetized for ocular (topical) and intravitreal dosing following the 12IA7 IACUC protocol. Each rabbit received a bolus dose of test formulation either via topical ocular administration 3 times daily on Days 1 and 2 (at 0, 6, and 12 hours), and once on Day 3 (at 0 hours) into both eyes; via intravitreal administration into both eyes once on Day 1 (at 0 hours); or via subcutaneous administration 2 times daily on Days 1 and 2 (at 0 and 8 hours) and once daily on Day 3 (at 0 hours). Doses were given within an approximately 1 hour window each day where applicable.
On Day 1, for intravitreal administration, or on Day 3, for topical ocular and subcutaneous administration, at the appropriate ocular tissue collection time points, animals were euthanized and both eyes were enucleated immediately. Following enucleation, each eye was rinsed with phosphate-buffered saline. Ocular tissue samples from both eyes of each animal were collected at predetermined time points and weights were recorded. All the samples were frozen immediately on dry ice, and stored at −60° C. to −80° C. pending bioanalysis.
An LC-MS/MS method was developed for the determination of Compound 1 in rabbit aqueous tissues (plasma, aqueous and vitreous humor) and solid ocular tissue samples. A pre-study standard curve was analyzed to determine the specificity, range, and lower limit of quantitation of the method. Plasma and tissue homogenate study samples were extracted and analyzed. All the samples were treated identically to the standards.
One eight-point standard curve was used in each analytical batch. To be accepted, each batch must have had at least five of eight standards with accuracy within ±20% of nominal, except at the lower limit of quantification (LLOQ), where ±25% was acceptable.
Concentration versus time data is plotted in FIGS. 3-16. All data are expressed as ng/g of the free drug. Samples that were below the limit of quantitation (0.2 ng/mL) were not used in the calculation of averages.

[1] = Group 1 topical ocular 1.2 mg/eye, 2.0 hr
[2] = Group 1 topical ocular 1.2 mg/eye, 4.0 hr
[3] = Group 2 subcutaneous 5 mg/kg, 0.5 hr
[4] = Group 2 subcutaneous 5 mg/kg, 1.0 hr
[5] = Group 2 subcutaneous 5 mg/kg, 2.0 hr
[6] = Group 2 subcutaneous 5 mg/kg, 4.0 hr
[7] = Group 4 intravitreal 2.5 mg per eye, 6.0 hr
[8] = Group 4 intravitreal 2.5 mg per eye, 24 hr
[9] = Group 4 intravitreal 2.5 mg per eye, 48 hr
[10] = Group 4 intravitreal 2.5 mg per eye, 72 hr

Average Peak Concentration, Vitreous Humor (Group 1 topical ocular 0.70 mg/kg/dose): 0.61 ng/g
aqueous humor Conc., individual eyes (OD, OS) (Group 1 topical ocular 1.2 mg/eye, 0.5 hr): 3.44 ng/mL and 1.78 ng/mL and 12.8 ng/mL
aqueous humor Conc., individual eyes (OD, OS) (Group 1 topical ocular 1.2 mg/eye, 1.0 hr): 3.55 ng/mL and 3.05 ng/mL
aqueous humor Conc., individual eyes (OD, OS) [1]: 2.46 ng/mL and 14.5 ng/mL and 15.8 ng/mL
vitreous humor Conc., individual eyes (OD, OS) [1]: 1.14 ng/mL and 0.950 ng/mL
Average Peak Concentration, Vitreous Humor (Group 2 subcutaneous 5 mg/kg/dose): 0.83 ng/g
aqueous humor Conc., individual eyes (OD, OS) [5]: 0.498 ng/mL and 0.453 ng/mL
aqueous humor Conc., individual eyes (OD, OS) [8]: 5190 ng/mL and 6810 ng/mL
aqueous humor Conc., individual eyes (OD, OS) [9]: 1510 ng/mL and 2330 ng/mL and 1970 ng/mL
concentration at 6 hr (New Zealand White, rabbit, aqueous humor, other: intravitreal, 2.5 mg per eye, Group 4 intravitreal 2.5 mg per eye, 6.0 hr, read-out: aqueous humor Average Conc.): 80600 ng/g
concentration at 6 hr (New Zealand White, rabbit, aqueous humor, other: intravitreal, 2.5 mg per eye, Group 4 intravitreal 2.5 mg per eye, 6.0 hr, read-out: aqueous humor Conc., individual eyes (OD, OS)): 90.6 µg/mL
concentration at 24 hr (New Zealand White, rabbit, aqueous humor, other: intravitreal, 2.5 mg per eye, Group 4 intravitreal 2.5 mg per eye, 24 hr, read-out: aqueous humor Average Conc.): 9000 ng/g
concentration at 24 hr (New Zealand White, rabbit, aqueous humor, other: intravitreal, 2.5 mg per eye, Group 4 intravitreal 2.5 mg per eye, 24 hr, read-out: aqueous humor Conc., individual eyes (OD, OS)): 4.7 µg/mL
concentration at 48 hr (New Zealand White, rabbit, aqueous humor, other: intravitreal, 2.5 mg per eye, Group 4 intravitreal 2.5 mg per eye, 48 hr, read-out: aqueous humor Average Conc.): 1960 ng/g
concentration at 48 hr (New Zealand White, rabbit, aqueous humor, other: intravitreal, 2.5 mg per eye, Group 4 intravitreal 2.5 mg per eye, 48 hr, read-out: aqueous humor Conc., individual eyes (OD, OS)): 2.04 µg/mL
concentration at 72 hr (New Zealand White, rabbit, aqueous humor, other: intravitreal, 2.5 mg per eye, Group 4 intravitreal 2.5 mg per eye, 72 hr, read-out: aqueous humor Average Conc.): 34.5 ng/g
concentration at 0.5 h (New Zealand White, rabbit, aqueous humor, subcutaneous, 5 mg/kg, Group 2 subcutaneous 5 mg/kg, 0.5 hr, read-out: aqueous humor Average Conc.): 26.1 ng/g
concentration at 1 h (New Zealand White, rabbit, aqueous humor, subcutaneous, 5 mg/kg, Group 2 subcutaneous 5 mg/kg, 1.0 hr, read-out: aqueous humor Average Conc.): 3.3 ng/g
concentration at 2 h (New Zealand White, rabbit, aqueous humor, subcutaneous, 5 mg/kg, Group 2 subcutaneous 5 mg/kg, 2.0 hr, read-out: aqueous humor Average Conc.): 0.72 ng/g
concentration at 2 h (New Zealand White, rabbit, aqueous humor, subcutaneous, 5 mg/kg, Group 2 subcutaneous 5 mg/kg, 2.0 hr, read-out: aqueous humor Conc., individual eyes (OD, OS)): 0.000581 µg/mL
concentration at 0.5 hr (New Zealand White, rabbit, aqueous humor, topical, 1.2 mg/eye, Group 1 topical ocular 1.2 mg/eye, 0.5 hr, read-out: aqueous humor Average Conc.): 45.8 ng/g
concentration at 1 hr (New Zealand White, rabbit, aqueous humor, topical, 1.2 mg/eye, Group 1 topical ocular 1.2 mg/eye, 1.0 hr, read-out: aqueous humor Average Conc.): 15 ng/g
concentration at 1 hr (New Zealand White, rabbit, aqueous humor, topical, 1.2 mg/eye, Group 1 topical ocular 1.2 mg/eye, 1.0 hr, read-out: aqueous humor Conc., individual eyes (OD, OS)): 0.00403 µg/mL
concentration at 2 h (New Zealand White, rabbit, aqueous humor, topical, 1.2 mg/eye, Group 1 topical ocular 1.2 mg/eye, 2.0 hr, read-out: aqueous humor Average Conc.): 31.6 ng/g
SMILES: COC(=O)N[C@@H](Cc1ccccc1)C(=O)N[C@@H](Cc1ccc(NS(=O)(=O)O)cc1)c1csc(-c2cccs2)n1 [Compound 1 sodium salt]
aqueous humor Conc., individual eyes (OD, OS) [2]: 5.48 ng/mL and 5.61 ng/mL and 7.78 ng/mL and 14.1 ng/mL
vitreous humor Conc., individual eyes (OD, OS) [2]: 1.09 ng/mL and 2.20 ng/mL and 0.551 ng/mL
aqueous humor Conc., individual eyes (OD, OS) [3]: 23.5 ng/mL and 24.6 ng/mL and 18.0 ng/mL and 38.2 ng/mL
vitreous humor Conc., individual eyes (OD, OS) [3]: 1.03 ng/mL and 0.537 ng/mL and 0.981 ng/mL
aqueous humor Conc., individual eyes (OD, OS) [4]: 4.51 ng/mL and 1.84 ng/mL and 3.22 ng/mL and 3.63 ng/mL
vitreous humor Conc., individual eyes (OD, OS) [4]: 0.252 ng/mL and 0.766 ng/mL and 0.442 ng/mL and 0.337 ng/mL
vitreous humor Conc., individual eyes (OD, OS) [5]: BLOQ (Below the limit of quantitation (0.2 ng/mL))
aqueous humor Conc., individual eyes (OD, OS) [6]: BLOQ (Below the limit of quantitation (0.2 ng/mL))
vitreous humor Conc., individual eyes (OD, OS) [6]: BLOQ (Below the limit of quantitation (0.2 ng/mL))
aqueous humor Conc., individual eyes (OD, OS) [7]: 77100 ng/mL and 75300 ng/mL and 79300 ng/mL
vitreous humor Conc., individual eyes (OD, OS) [7]: 1450000 ng/mL and 1480000 ng/mL and 432000 ng/mL
vitreous humor Conc., individual eyes (OD, OS) [8]: 295000 ng/mL and 406000 ng/mL and 259000 ng/mL
vitreous humor Conc., individual eyes (OD, OS) [9]: 82300 ng/mL and 68600 ng/mL and 91900 ng/mL
aqueous humor Conc., individual eyes (OD, OS) [10]: 23.2 ng/mL and 16.1 ng/mL and 49.7 ng/mL and 49.0 ng/mL
vitreous humor Conc., individual eyes (OD, OS) [10]: 13500 ng/mL and 11700 ng/mL and 14100 ng/mL

Reference: patent publication US11666558B2, “Methods of treating intraocular pressure with activators of Tie-2” (EyePoint Pharmaceuticals, Inc., priority 2015, dated 2023)
